Tested on: NCI-H211 complex spheroid viability
Experiment: Anticancer human tumor NCI-H211 cell line growth inhibition [LSD1];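 also: luminescent viability read after seven days of drug exposure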;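 as to viability, T/C: 100% = DMSO vehicle control viability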
Details: for IC50: curve of first compound; for viability, T/C: stronger effect = lower value
Method in brief: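 Complex spheroids of tumor cells with HUVEC and human MSCs, exposed to iadademstat combined with other agents. Each agent tested in half-log steps from near clinical Cmax (else 10 microM top), DMSO ≤0.25%.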

[1] = second compound 0.1 µM, first compound 0.0316 µM
[2] = second compound 0.1 µM, first compound 0.1 µM
[3] = second compound 0.1 µM, first compound 0.316 µM
[4] = second compound 0.1 µM, first compound 1 µM
[5] = second compound 0.1 µM, first compound 3.16 µM
[6] = second compound 0.1 µM, first compound 10 µM
[7] = second compound 0.316 µM, first compound 0.0316 µM
[8] = second compound 0.316 µM, first compound 0.1 µM
[9] = second compound 0.316 µM, first compound 0.316 µM
[10] = second compound 0.316 µM, first compound 1 µM
[11] = second compound 0.316 µM, first compound 3.16 µM
[12] = second compound 0.316 µM, first compound 10 µM
[13] = second compound 1 µM, first compound 0.0316 µM
[14] = second compound 1 µM, first compound 0.1 µM
[15] = second compound 1 µM, first compound 0.316 µM
[16] = second compound 1 µM, first compound 1 µM
[17] = second compound 1 µM, first compound 3.16 µM
[18] = second compound 1 µM, first compound 10 µM
[19] = second compound 3.16 µM, first compound 0.0316 µM
[20] = second compound 3.16 µM, first compound 0.1 µM
[21] = second compound 3.16 µM, first compound 0.316 µM
[22] = second compound 3.16 µM, first compound 1 µM
[23] = second compound 3.16 µM, first compound 3.16 µM
[24] = second compound 3.16 µM, first compound 10 µM
[25] = second compound 10 µM, first compound 0.0316 µM
[26] = second compound 10 µM, first compound 0.1 µM
[27] = second compound 10 µM, first compound 0.316 µM
[28] = second compound 10 µM, first compound 1 µM
[29] = second compound 10 µM, first compound 3.16 µM
[30] = second compound 10 µM, first compound 10 µM

SMILES: CC(C)c1c(-c2ccccc2)nc2c(C#N)c[nH]n2c1=O + NC1CC1c1ccc(-c2cccc(O)c2)cc1
- IC50 (second compound 0.1 µM): 6.12 µM
- IC50 (second compound 0.316 µM): 6.66 µM
- IC50 (second compound 1 µM): 2.93 µM
- IC50 (second compound 3.16 µM): 6.42 µM
- IC50 (second compound 10 µM): 3.8 µM
- viability, T/C [1]: 86.7%
- viability, T/C [2]: 66.5%
- viability, T/C [3]: 70.5%
- viability, T/C [4]: 66%
- viability, T/C [5]: 54.9%
- viability, T/C [6]: 45.3%
- viability, T/C [7]: 73.7%
- viability, T/C [8]: 75.5%
- viability, T/C [9]: 69.9%
- viability, T/C [10]: 61.9%
- viability, T/C [11]: 63.1%
- viability, T/C [12]: 43.9%
- viability, T/C [13]: 74.3%
- viability, T/C [14]: 64.2%
- viability, T/C [15]: 63.4%
- viability, T/C [16]: 69.8%
- viability, T/C [17]: 48.7%
- viability, T/C [18]: 37.5%
- viability, T/C [19]: 83.6%
- viability, T/C [20]: 57.1%
- viability, T/C [21]: 74.8%
- viability, T/C [22]: 63.5%
- viability, T/C [23]: 59.6%
- viability, T/C [24]: 44.3%
- viability, T/C [25]: 52.1%
- viability, T/C [26]: 62.4%
- viability, T/C [27]: 64.5%
- viability, T/C [28]: 58.8%
- viability, T/C [29]: 47.2%
- viability, T/C [30]: 41.7%

SMILES: CC1COCCN1c1cc(-c2ccnn2C)c2ccnc(-c3ccn[nH]3)c2n1 (stereo not given) + NC1CC1c1ccc(-c2cccc(O)c2)cc1
- IC50 (second compound 0.1 µM): 0.00378 µM
- IC50 (second compound 0.316 µM): 0.00351 µM
- IC50 (second compound 1 µM): < 0.00316 µM
- IC50 (second compound 3.16 µM): < 0.00316 µM
- IC50 (second compound 10 µM): < 0.00316 µM
- viability, T/C (second compound 0.1 µM, first compound 0.00316 µM): 56.3%
- viability, T/C (second compound 0.1 µM, first compound 0.01 µM): 16.8%
- viability, T/C [1]: 6.31%
- viability, T/C [2]: 4.68%
- viability, T/C [3]: 3.56%
- viability, T/C [4]: 3.19%
- viability, T/C (second compound 0.316 µM, first compound 0.00316 µM): 53.6%
- viability, T/C (second compound 0.316 µM, first compound 0.01 µM): 14%
- viability, T/C [7]: 6.09%
- viability, T/C [8]: 4.56%
- viability, T/C [9]: 4.43%
- viability, T/C [10]: 4.27%
- viability, T/C (second compound 1 µM, first compound 0.00316 µM): 47.7%
- viability, T/C (second compound 1 µM, first compound 0.01 µM): 16.8%
- viability, T/C [13]: 6.6%
- viability, T/C [14]: 4.61%
- viability, T/C [15]: 7.13%
- viability, T/C [16]: 4.1%
- viability, T/C (second compound 3.16 µM, first compound 0.00316 µM): 43.6%
- viability, T/C (second compound 3.16 µM, first compound 0.01 µM): 14.1%
- viability, T/C [19]: 6.53%
- viability, T/C [20]: 4.92%
- viability, T/C [21]: 4.52%
- viability, T/C [22]: 4.59%
- viability, T/C (second compound 10 µM, first compound 0.00316 µM): 34.5%
- viability, T/C (second compound 10 µM, first compound 0.01 µM): 14.5%
- viability, T/C [25]: 7.33%
- viability, T/C [26]: 4.8%
- viability, T/C [27]: 4.76%
- viability, T/C [28]: 6.03%

SMILES: COc1ccc([C@@H](O)c2cc(-c3ncnc4cc(N5CCOCC5)ccc34)c(F)cc2Cl)nn1 + NC1CC1c1ccc(-c2cccc(O)c2)cc1
- IC50 (second compound 0.1 µM): 4.47 µM
- IC50 (second compound 0.316 µM): 4.05 µM
- IC50 (second compound 1 µM): 3.57 µM
- IC50 (second compound 3.16 µM): 2.49 µM
- IC50 (second compound 10 µM): < 0.0316 µM
- viability, T/C [1]: 62%
- viability, T/C [2]: 63.6%
- viability, T/C [3]: 75%
- viability, T/C [4]: 89.8%
- viability, T/C [5]: 65.8%
- viability, T/C [6]: 13.6%
- viability, T/C [7]: 59.7%
- viability, T/C [8]: 52.7%
- viability, T/C [9]: 62.2%
- viability, T/C [10]: 73.5%
- viability, T/C [11]: 59.9%
- viability, T/C [12]: 12.2%
- viability, T/C [13]: 67.3%
- viability, T/C [14]: 67%
- viability, T/C [15]: 72.2%
- viability, T/C [16]: 76.8%
- viability, T/C [17]: 54.8%
- viability, T/C [18]: 9.71%
- viability, T/C [19]: 54.5%
- viability, T/C [20]: 53.1%
- viability, T/C [21]: 59%
- viability, T/C [22]: 60.4%
- viability, T/C [23]: 48.2%
- viability, T/C [24]: 8.23%
- viability, T/C [25]: 51.2%
- viability, T/C [26]: 38.8%
- viability, T/C [27]: 51.6%
- viability, T/C [28]: 48%
- viability, T/C [29]: 36.7%
- viability, T/C [30]: 3.23%
